Assay results as given in patent US20230190844A1, “COMPOSITION AND METHOD FOR TREATING CANCER WITH CANNABINOIDS” (CANNABICS PHARMACEUTICALS INC., priority 2020, published 2023).

How the values were obtained:
[1] = system: HCT116 cells; assay: CellTiter-Glo (CTG) cell viability, HCT-116
Experimental: (§1) The colon cancer cell lines RKO, and HCT116 were exposed to various cannabinoid combinations, at 37° C. for 48 h. The viability of the tested cells was examined. Further, synergism was evaluated using the Bliss equation.
(§2) CBDV and CBGA were tested at concentrations of 46.9 μM and 51.2 μM, respectively (shown as X2 in FIGS. 4A-4B). The effect of contacting each cannabinoid on the cells at half the concentration (i.e., 23.4 μM and 25.6 μM for CBDV and CBGA, respectively) was further tested (shown as X1 in FIGS. 4A-4B). Mixtures of CBDV and CBGA each at a X1 concentration were further prepared (“low concentration solutions”). The effect of the low concentration solution on the viability of the cancer cells was tested. The testing of the effect of each solution on the cancer cells was determined by incubating the cells with each cannabinoid solution as well as a standard (control) comprising DMSO only at 37° C. for 48 h and cell viability was measured by CTG viability assay using a Varioskan™ LUX multimode microplate reader.
(§3) FIGS. 7A-7B illustrate the human colon cell lines (HCT116 and RKO) that were incubated with CBGA at a concentration of 35 μM, CBDV at a concentration of 25 μM, Capecitabine at a concentration of 250 μM, and a combination thereof.

[2] = system: RKO cells; assay: CellTiter-Glo (CTG) cell viability, RKO
Experimental: as §1, §2, §3

[3] = system: cells of human colon cancer biopsy; assay: Cell viability of human colon cancer biopsies; assay type: cell-based; conditions: CBDV 23.5 μM, CBG 20 μM, alone or combined
Experimental: The anti-tumor effect of combinations of cannabinoids CBCA, CBDV, CBDVA, THCV and CBGA on human colon cancer biopsies was tested. […] The obtained cell viability inhibition produced synergistic effects.
Table 18 illustrates (shown also graphically at FIG. 5A) the synergistic anti-tumor effect of a combination of the cannabinoids THCV (at a concentration of 24 μM) and CBCA (at a concentration of 14.5 μM) on colon cancer biopsies.
FIG. 6 illustrates graphically the combination of CBGA and CBDV on colon cancer biopsies taken from a patient. The concentration of each component was: CBGA (X2-51.2 μM), CBGA (X1-25.6 μM), CBDV (X2-47 μM), […].

[4] = system: HT-29 colon cancer cells; assay: CellTiter-Glo (CTG) cell viability, HT-29; assay type: cell-based, human; conditions: CBDV 23.5 μM, CBGA 25.6 μM, THC-d8 17.5 μM; 48 hours; FIGS. 1A-1B
Experimental: The colon cancer cell line HT-29 was exposed to each of CBDV (at a concentration of 23.5 μM) and CBGA (at a concentration of 25.6 μM) alone, and a combination thereof and to each of CBGA (at a concentration of 25.6 μM) and THC-d8 (at a concentration of 17.5 μM) alone, and a combination thereof at 37° C. for 48 hours. The viability of the tested cells was examined. The following Tables 4 and 5 illustrate the obtained results (shown also graphically at FIGS. 1A and 1B).

[5] = system: A549 lung cancer cells; assay: CellTiter-Glo (CTG) cell viability, A549; assay type: cell-based; conditions: CBDV 23.5 μM, CBGA 25.6 μM, CBDVA 25.6 μM, THC-d8 17.5 μM; 48 hours; FIGS. 2A-2B
Experimental: The lung cancer cell line A549 was exposed to each of CBDV (at a concentration of 23.5 μM) and CBGA (at a concentration of 25.6 μM) alone, and a combination thereof at 37° C. for 48 hours. The viability of the tested cells was examined. The following Table 6 illustrates the obtained results (shown also graphically in FIGS. 2A-2B).

[6] = system: MCF-7 breast cancer cells; assay: CellTiter-Glo (CTG) cell viability, MCF-7; assay type: cell-based; conditions: CBDV 23.5 μM, CBGA 20 μM, CBDVA 17.5 μM, THC-d8 17.5 μM; 48 hours; FIGS. 3A-3B
Experimental: The breast cancer cell line MCF-7 was exposed to each of CBDV (at a concentration of 23.5 μM) and CBGA (at a concentration of 20 μM) alone, and to a combination thereof at 37° C. for 48 hours. The viability of the tested cells was examined. The following Table 8 illustrates the obtained results (shown also graphically in FIGS. 3A-3B).

[7] = system: CT26 cells; assay: Cell viability at varying CBGA:CBDV ratios, CT26; conditions: Mus musculus, CT26, read-out: % Cells Viability
Experimental: (§4) Human colon cell lines (SC-CO1, RKO, and HCT116) and a murine cell line (CT26) were incubated with varying molar ratios between CBGA and CBDV of 1:3.5 to 8.5:1. Cells' viability and corresponding synergy rankings were determined.

[8] = system: SK-CO1 cells; assay: Cell viability at varying CBGA:CBDV ratios, SK-CO1; conditions: Homo sapiens, SK-CO-1, read-out: % Cells Viability
Experimental: as §4

[9] = Homo sapiens, HCT-116, read-out: % Cells Viability
[10] = Homo sapiens, RKO, read-out: % Cells Viability

SMILES | growth inhibition / anti-cancer effect in words [4] | growth inhibition / anti-cancer effect in words [5] | growth inhibition / anti-cancer effect in words [6] | viability at 10 µM [1, 9] | viability at 15 µM [1, 9] | viability at 25 µM [1, 9] | viability at 30 µM [1, 9] | viability at 35 µM [1, 9] | viability at 10 µM [2, 10] | viability at 15 µM [2, 10] | viability at 25 µM [2, 10] | viability at 30 µM [2, 10] | viability at 35 µM [2, 10] | viability at 10 µM [7] | viability at 15 µM [7] | viability at 25 µM [7] | viability at 30 µM [7] | viability at 35 µM [7] | viability at 10 µM [8] | viability at 15 µM [8] | further results
CCCCCOC(=O)Nc1nc(=O)n([C@@H]2O[C@H](C)[C@@H](O)[C@H]2O)cc1F [Capecitabine, reference compound] |  |  |  |  |  |  |  |  |  |  |  |  |  |  |  |  |  |  |  |  | anti-cancer / toxicity effect on the cells in words ([1]; FIG. 7A, CBGA 35 μM, CBDV 25 μM, Capecitabine 250 μM): no toxicity effect; anti-cancer / toxicity effect on the cells in words ([2]; FIG. 7B, CBGA 35 μM, CBDV 25 μM, Capecitabine 250 μM): no toxicity effect
CCCCCc1cc(O)c(C/C=C(\C)CCC=C(C)C)c(O)c1 [CBG] |  |  |  |  |  |  |  |  |  |  |  |  |  |  |  |  |  |  |  |  | Viability [3]: 84
CCCCCc1cc(O)c(C/C=C(\C)CCC=C(C)C)c(O)c1C(=O)O [CBGA, 3-[(2E)-3,7-dimethylocta-2,6-dienyl]-2,4-dihydroxy-6-pentylbenzoic acid] | slight growth inhibition effect | slight growth inhibition effect | slight growth inhibition effect | 115% | 112% | 104% | 97% | 90% | 119% | 119% | 94% | 75% | 59% | 102% | 102% | 46% | 22% | 21% | 108% | 110% | viability at 25.6 µM ([1]; Homo sapiens, HCT-116, 48 h): 105%; viability at 51.2 µM ([1]; Homo sapiens, HCT-116, 48 h): 84%; viability at 42.5 µM [1, 9]: 72%; viability at 25.6 µM ([2]; Homo sapiens, RKO, 48 h): 103%; viability at 51.2 µM ([2]; Homo sapiens, RKO, 48 h): 53%; viability at 42.5 µM [2, 10]: 41%; viability at 42.5 µM [7]: 11%; viability at 25 µM [8]: 101%; viability at 30 µM [8]: 91%; viability at 35 µM [8]: 76%; viability at 42.5 µM [8]: 52%
C=C(C)[C@H]1CCC(C)=C[C@@H]1c1c(O)cc(CCC)cc1O [CBDV, 2-((1S,6S)-3-methyl-6-(prop-1-en-2-yl)cyclohex-2-enyl)-5-propylbenzene-1,3-diol] | slight growth inhibition effect | slight growth inhibition effect | slight growth inhibition effect | 109% | 101% | 84% | 71% | 64% | 108% | 88% | 62% | 53% | 48% | 109% | 113% | 108% | 99% | 90% | 103% | 99% | viability at 23.4 µM ([1]; Homo sapiens, HCT-116, 48 h): 94%; viability at 46.9 µM ([1]; Homo sapiens, HCT-116, 48 h): 64%; viability at 5 µM [1, 9]: 113%; viability at 23.4 µM ([2]; Homo sapiens, RKO, 48 h): 92%; viability at 46.9 µM ([2]; Homo sapiens, RKO, 48 h): 38%; viability at 5 µM [2, 10]: 112%; viability at 5 µM [7]: 108%; viability at 5 µM [8]: 104%; viability at 25 µM [8]: 99%; viability at 30 µM [8]: 97%; viability at 35 µM [8]: 96%
